# Patent publication US20240148821A1, “PHARMACEUTICAL USE OF CYCLIC PEPTIDE COMPOUND” (CHUGAI SEIYAKU KABUSHIKI KAISHA, priority 2021, published 2024)
# Numbered stars: 1 amine (or outer) side, 2 acyl side, 3 side chain; on linkers, the order of the positions; unused ones are H or OH. Bridge positions count the residues as written; N and C are the ends. Square brackets hold non-standard residues; d marks the D form. Peptide text beside a SMILES is read from it. * marks the point of attachment. NMeAbu(3,3-F2-piperidino) = CN[C@@H](CCN1CCCC(F)(F)C1)C(=O)O; hPhe(3-Cl-4-CF3) = N[C@@H](CCc1ccc(C(F)(F)F)c(Cl)c1)C(=O)O; NMePhe(4-CF3) = CN[C@@H](Cc1ccc(C(F)(F)F)cc1)C(=O)O; NMeAbu(4,4,4-F3) = CN[C@@H](CC(F)(F)F)C(=O)O; NMePhe(4-Cl) = CN[C@@H](Cc1ccc(Cl)cc1)C(=O)O; X51 = CN([C@@](C)(Cc1ccccc1)C(=O)[*:2])[*:1]; NMePhe(4-Me) = CN[C@@H](Cc1ccc(C)cc1)C(=O)O; NMePhe(4-F) = CN[C@@H](Cc1ccc(F)cc1)C(=O)O; NMeGly(cPent) = CN[C@H](C(=O)O)C1CCCC1; Phe(3-I) = N[C@@H](Cc1cccc(I)c1)C(=O)O; NMe4Pal = CN[C@@H](Cc1ccncc1)C(=O)O; NMeY = CN[C@@H](Cc1ccc(O)cc1)C(=O)O; NMeCha = CN[C@@H](CC1CCCCC1)C(=O)O; NMeAllylGly = C=CC[C@H](NC)C(=O)O; Hyp = O=C(O)[C@@H]1C[C@@H](O)CN1; NMeChg = CN[C@H](C(=O)O)C1CCCCC1; NMeI = CC[C@H](C)[C@H](NC)C(=O)O; NMeD = CN[C@@H](CC(=O)O)C(=O)O; NMeL = CN[C@@H](CC(C)C)C(=O)O; NMehSer = CN[C@@H](CCO)C(=O)O; NMeV = CN[C@H](C(=O)O)C(C)C; d(β3hA) = C[C@@H](N)CC(=O)O; NMeS = CN[C@@H](CO)C(=O)O; Pip = O=C(O)[C@@H]1CCCCN1; NMeA = CN[C@@H](C)C(=O)O; NMeAib = CNC(C)(C)C(=O)O; Nle = CCCC[C@H](N)C(=O)O; Piperidide = C1CCN(*)CC1; Pra = C#CC[C@H](N)C(=O)O; Pyrrolidide = C1CCN(*)C1; Ac5c = NC1(C(=O)O)CCCC1; Aze = O=C(O)[C@@H]1CCN1; CH2CMe2OH = CC(C)(O)C*; Cyclobutyl = C1CC(*)C1; NBuGly = CCCCNCC(=O)O; Aib = CC(C)(N)C(=O)O; Isopentyl = CC(C)CC*; NEtG = CCNCC(=O)O; βAla = NCCC(=O)O; Sar = CNCC(=O)O; Propyl = CCC*
# Tested on: Human pancreatic cancer cell line AsPC-1 (G12D mutation Kras)
# Assay: AsPC-1 cell growth inhibition (AsPC-1 CGI)
# Type: cell-based
# Details: read-out: AsPC-1 cell growth inhibition, 50% growth inhibitory concentration (IC50 value); 96 hours, CellTiter-Glo, values classified in ranges
# Method: Test compounds were serially dilated with dimethyl sulfoxide, and 200 nL was then dispensed to a U-bottom 96-well plate using Labcyte Echo. […] The cell suspension was dispensed to a. plate containing a test compound at 100 μL per well and incubated at 37° C. in a 5% carbon dioxide gas incubator. 96 hours later, 80 μL of CellTiter-Glo (Promega) was added to each well and fluorescence was measured.
row,Structure (SMILES),IC50 [µM]
1,CC[C@H](C)[C@@H]1NC(=O)[C@H](CC(C)C)N(C)C(=O)C[C@@H](C(=O)N2CCCCC2)N(C)C(=O)[C@H](CC(C)C)NC(=O)C(C)(C)N(C)C(=O)[C@H](Cc2ccc(OC)cc2)NC(=O)[C@H](Cc2cccc(I)c2)NC(=O)CN(C)C(=O)[C@H](CC2CCCCC2)N(C)C(=O)CN(C)C(=O)CN(C)C1=O [Compound 320] ([NMeL]I[Sar][Sar][NMeCha][Sar][Phe(3-I)]Y(Me)[NMeAib]L[NMeD]-Piperidide; lactam N-11),> 0.5
2,CCCC[C@@H]1NC(=O)[C@H](Cc2ccccc2)NC(=O)CN(C)C(=O)[C@H](Cc2ccc(Cl)cc2)N(C)C(=O)CN(C)C(=O)CN(C)C(=O)[C@H]([C@@H](C)CC)NC(=O)[C@H](CC(C)C)N(C)C(=O)C[C@@H](C(=O)N2CCCCC2)N(C)C(=O)[C@H](CC(C)C)NC(=O)C(C)(C)N(C)C1=O [Compound 1043] ([NMeL]I[Sar][Sar][NMePhe(4-Cl)][Sar]F[Nle][NMeAib]L[NMeD]-Piperidide; lactam N-11),> 0.5
3,"CC[C@H](C)[C@@H]1NC(=O)[C@H](CC(C)C)N(C)C(=O)C[C@@H](C(=O)N(C)C)N(C)C(=O)[C@H]([C@@H](C)CC)N(C)C(=O)[C@H](C)NC(=O)[C@H](CCN2CCCC(F)(F)C2)N(C)C(=O)[C@H](CCc2ccc(C(F)(F)F)c(Cl)c2)NC(=O)CN(C)C(=O)[C@H](Cc2ccc(C)cc2)N(C)C(=O)[C@@H]2CCN2C(=O)[C@H](C)N(C)C1=O [Compound 1135] ([NMeL]I[NMeA][Aze][NMePhe(4-Me)][Sar][hPhe(3-Cl-4-CF3)][NMeAbu(3,3-F2-piperidino)]A[NMeI][NMeD]-NMe2; lactam N-11)",> 0.5
4,CC[C@H](C)[C@@H]1NC(=O)[C@H](CC(C)C)N(C)C(=O)C[C@@H](C)NC(=O)[C@H](CC(C)C)N(C)C(=O)C(C)(C)NC(=O)[C@H](COCC(C)(C)O)N(C)C(=O)[C@H](CCc2ccc(C(F)(F)F)c(Cl)c2)NC(=O)CN(C)C(=O)[C@H](COCCC(C)C)N(C)C(=O)[C@@H]2CCN2C(=O)CN(CC)C1=O [Compound 1472] (cyclo([Aib][NMeL][d(β3hA)][NMeL]I[NEtG][Aze][NMeS](Isopentyl)[Sar][hPhe(3-Cl-4-CF3)][NMeS](CH2CMe2OH))),> 0.5
5,CC[C@H](C)[C@@H]1NC(=O)[C@H](CC(C)C)N(C)C(=O)C[C@@H](C(=O)N(C)C)N(C)C(=O)[C@H](C2CCCC2)N(C)C(=O)C2(CCCC2)NC(=O)[C@@H]2CCCN2C(=O)[C@H](CCc2ccc(C(F)(F)F)c(Cl)c2)NC(=O)CN(C)C(=O)[C@H](Cc2ccc(C)cc2)N(C)C(=O)[C@@H]2CCN2C(=O)[C@H](C)NC1=O [Compound 363] ([NMeL]IA[Aze][NMePhe(4-Me)][Sar][hPhe(3-Cl-4-CF3)]P[Ac5c][NMeGly(cPent)][NMeD]-NMe2; lactam N-11),≤ 0.02
6,CCCCN1CC(=O)N(C)[C@@H](CC2CCCCC2)C(=O)N(C)CC(=O)N[C@@H](CCc2ccc(C(F)(F)F)c(Cl)c2)C(=O)N2CCC[C@H]2C(=O)NC2(CCCC2)C(=O)N(C)[C@@H](C(C)C)C(=O)N[C@H](C)CC(=O)N(C)[C@@H](CC(C)C)C(=O)N[C@@H]([C@@H](C)CC)C(=O)N(C)CC1=O [Compound 1033] (cyclo([Ac5c][NMeV][d(β3hA)][NMeL]I[Sar][NBuGly][NMeCha][Sar][hPhe(3-Cl-4-CF3)]P)),> 0.5
7,CC[C@H](C)[C@@H]1NC(=O)[C@H](CC(C)C)N(C)C(=O)C[C@@H](C)NC(=O)[C@H](CC(C)C)N(C)C(=O)C(C)(C)NC(=O)[C@H](COCC(C)(C)O)N(C)C(=O)[C@H](CCc2ccc(C(F)(F)F)c(Cl)c2)NC(=O)CN(C)C(=O)[C@H](COCCC(C)C)N(C)C(=O)CN(C)C(=O)CN(C)C1=O [Compound 1546] (cyclo([Aib][NMeL][d(β3hA)][NMeL]I[Sar][Sar][NMeS](Isopentyl)[Sar][hPhe(3-Cl-4-CF3)][NMeS](CH2CMe2OH))),> 0.5
8,CC[C@H](C)[C@@H]1NC(=O)[C@H](CC(C)C)N(C)C(=O)C[C@@H](C(=O)N(C)C)N(C)C(=O)[C@H]([C@@H](C)CC)N(C)C(=O)[C@H](C)NC(=O)[C@H](Cc2ccncc2)N(C)C(=O)[C@H](CCc2ccc(C(F)(F)F)c(Cl)c2)NC(=O)CN(C)C(=O)[C@H](Cc2ccc(C)cc2)N(C)C(=O)[C@@H]2CCN2C(=O)[C@H](C)N(C)C1=O [Compound 1973] ([NMeL]I[NMeA][Aze][NMePhe(4-Me)][Sar][hPhe(3-Cl-4-CF3)][NMe4Pal]A[NMeI][NMeD]-NMe2; lactam N-11),> 0.5
9,CCCOC[C@@H]1NC(=O)[C@H](CC(C)C)N(C)C(=O)C[C@@H](C(=O)N2CCCCC2)N(C)C(=O)[C@H](C2CCCCC2)N(C)C(=O)C2(CCCC2)NC(=O)[C@@H]2CCCN2C(=O)[C@H](CCc2ccc(C(F)(F)F)c(Cl)c2)NC(=O)CN(C)C(=O)[C@H](CC2CCCCC2)N(C)C(=O)CN(C)C(=O)CN(C)C1=O [Compound 1736] ([NMeL]S(Propyl)[Sar][Sar][NMeCha][Sar][hPhe(3-Cl-4-CF3)]P[Ac5c][NMeChg][NMeD]-Piperidide; lactam N-11),> 0.5
10,C#CC[C@@H]1NC(=O)[C@H](Cc2cccc(I)c2)NC(=O)CN(C)C(=O)[C@H](Cc2ccc(F)cc2)N(C)C(=O)[C@@H]2CCN2C(=O)[C@H](C)N(C)C(=O)[C@H]([C@@H](C)CC)NC(=O)[C@H](CC(C)C)N(C)C(=O)C[C@@H](C(=O)N2CCCCC2)N(C)C(=O)[C@H](CC(C)C)NC(=O)C(C)(C)N(C)C1=O [Compound 1230] ([NMeL]I[NMeA][Aze][NMePhe(4-F)][Sar][Phe(3-I)][Pra][NMeAib]L[NMeD]-Piperidide; lactam N-11),> 0.5
11,CC[C@H](C)[C@@H]1NC(=O)[C@H](CC(C)C)N(C)C(=O)CCNC(=O)[C@H](C(C)C)N(C)C(=O)C2(CCCC2)NC(=O)[C@@H]2CCCN2C(=O)[C@H](CCc2ccc(C(F)(F)F)c(Cl)c2)NC(=O)CN(C)C(=O)[C@H](CC2CCCCC2)N(C)C(=O)CN(C)C(=O)CN(C)C1=O [Compound 979] (cyclo([Ac5c][NMeV][βAla][NMeL]I[Sar][Sar][NMeCha][Sar][hPhe(3-Cl-4-CF3)]P)),> 0.5
12,CC[C@H](C)[C@@H]1NC(=O)[C@H](CC(C)C)N(C)C(=O)C[C@@H](C(=O)N2CCCCC2)N(C)C(=O)[C@H](C2CCCCC2)N(C)C(=O)C2(CCCC2)NC(=O)[C@@H]2CCCCN2C(=O)[C@H](CCc2ccc(C(F)(F)F)c(Cl)c2)NC(=O)CN(C)C(=O)[C@H](CC2CCCCC2)N(C)C(=O)CN(C)C(=O)CN(C)C1=O [Compound 728] ([NMeL]I[Sar][Sar][NMeCha][Sar][hPhe(3-Cl-4-CF3)][Pip][Ac5c][NMeChg][NMeD]-Piperidide; lactam N-11),> 0.5
13,C=CC[C@H]1C(=O)NC2(CCCC2)C(=O)N(C)[C@@H](C2CCCCC2)C(=O)N(C)[C@H](C(=O)N2CCCCC2)CC(=O)N(C)[C@@H](CC(C)C)C(=O)N[C@@H]([C@@H](C)CC)C(=O)N(C)CC(=O)N(C)CC(=O)N(C)[C@@H](CC2CCCCC2)C(=O)N(C)CC(=O)N[C@@H](CCc2ccc(C(F)(F)F)c(Cl)c2)C(=O)N1C [Compound 1449] ([NMeL]I[Sar][Sar][NMeCha][Sar][hPhe(3-Cl-4-CF3)][NMeAllylGly][Ac5c][NMeChg][NMeD]-Piperidide; lactam N-11 (inferred); C-terminus assumed),> 0.5
14,CC[C@H](C)[C@@H]1NC(=O)[C@H](CC(C)C)N(C)C(=O)C[C@@H](C(=O)N2CCCCC2)N(C)C(=O)[C@H](COC2CCC2)N(C)C(=O)C2(CCCC2)NC(=O)[C@@H]2CCCN2C(=O)[C@H](CCc2ccc(C(F)(F)F)c(Cl)c2)NC(=O)CN(C)C(=O)[C@H](CC2CCCCC2)N(C)C(=O)CN(C)C(=O)CN(C)C1=O [Compound 585] ([NMeL]I[Sar][Sar][NMeCha][Sar][hPhe(3-Cl-4-CF3)]P[Ac5c][NMeS](Cyclobutyl)[NMeD]-Piperidide; lactam N-11),> 0.5
15,CC[C@H](C)[C@@H]1NC(=O)[C@H](CC(C)C)N(C)C(=O)C[C@@H](C(=O)N2CCCCC2)N(C)C(=O)[C@H](C2CCCCC2)N(C)C(=O)C2(CCCC2)NC(=O)[C@@H]2CCCN2C(=O)[C@H](CCc2ccc(C(F)(F)F)c(Cl)c2)NC(=O)CN(C)C(=O)[C@H](CCOC)N(C)C(=O)CN(C)C(=O)CN(C)C1=O [Compound 159] ([NMeL]I[Sar][Sar][NMehSer](Me)[Sar][hPhe(3-Cl-4-CF3)]P[Ac5c][NMeChg][NMeD]-Piperidide; lactam N-11),> 0.5
16,"CCO[C@@H]1C[C@H]2C(=O)NC3(CCCC3)C(=O)N(C)[C@@H](C3CCCCC3)C(=O)N(C)[C@H](C(=O)N3CCCC3)CC(=O)N(C)[C@@H](CC(F)(F)F)C(=O)N[C@@H]([C@@H](C)CC)C(=O)N(C)CC(=O)N(C)CC(=O)N(C)[C@@H](Cc3ccc(C(F)(F)F)cc3)C(=O)N(C)CC(=O)N[C@@H](CCc3ccc(C(F)(F)F)c(Cl)c3)C(=O)N2C1 [Compound 1139] ([NMeAbu(4,4,4-F3)]I[Sar][Sar][NMePhe(4-CF3)][Sar][hPhe(3-Cl-4-CF3)][Hyp](Et)[Ac5c][NMeChg][NMeD]-Pyrrolidide; lactam N-11)",≤ 0.02
17,CCCC[C@@H]1NC(=O)[C@H](Cc2cccc(I)c2)NC(=O)CN(C)C(=O)[C@H](Cc2ccc(OC)cc2)N(C)C(=O)[C@@H]2CCN2C(=O)CN(C)C(=O)[C@H]([C@@H](C)CC)NC(=O)[C@H](CC(C)C)N(C)C(=O)C[C@@H](C(=O)N2CCCCC2)N(C)C(=O)[C@H](CC(C)C)NC(=O)[C@](C)(Cc2ccccc2)N(C)C1=O [Compound 1058] ([NMeL]I[Sar][Aze][NMeY](Me)[Sar][Phe(3-I)][Nle][X51]L[NMeD]-Piperidide; lactam N-11),> 0.5
18,CC[C@H](C)[C@@H]1NC(=O)[C@H](CC(C)C)N(C)C(=O)C[C@@H](C(=O)N(C)C)N(C)C(=O)[C@H]([C@@H](C)CC)N(C)C(=O)C2(CCCC2)NC(=O)[C@H](Cc2ccncc2)N(C)C(=O)[C@H](CCc2ccc(C(F)(F)F)c(Cl)c2)NC(=O)CN(C)C(=O)[C@H](Cc2ccc(C)cc2)N(C)C(=O)[C@@H]2CCN2C(=O)[C@H](C)N(C)C1=O [Compound 1962] ([NMeL]I[NMeA][Aze][NMePhe(4-Me)][Sar][hPhe(3-Cl-4-CF3)][NMe4Pal][Ac5c][NMeI][NMeD]-NMe2; lactam N-11),≤ 0.02
